Source: the CheMixHub viscosity set
Several values for one entry are separate records, joined by “and”; a condition that tells them apart may be missing. Equal entries are not always repeated.

Assay: xn = mol fraction of the nth substance listed

CCCCCCCCCCCCCCCC + CCCCO
101 kPa
Settings | viscosity [mPa·s]
298.15 K, x2 = 0.3 | 2.675
323.15 K, x2 = 0.8 | 1.435

ClC(Cl)Cl + CCCO
viscosity [mPa·s]
Settings | 101 kPa | 101.3 kPa
293.15 K, x2 = 0.1045 | 0.7119 | –
293.15 K, x2 = 0.2064 | 0.7711 | –
293.15 K, x2 = 0.3054 | 0.8524 | –
293.15 K, x2 = 0.4027 | 0.9582 | –
293.15 K, x2 = 0.5075 | 1.105 | –
293.15 K, x2 = 0.6005 | 1.255 | –
293.15 K, x2 = 0.7045 | 1.507 | –
293.15 K, x2 = 0.8005 | 1.746 | –
293.15 K, x2 = 0.8967 | 1.998 | –
303 K, x1 = 0.2987 | – | 1.065
303 K, x1 = 0.4992 | – | 0.8162
303 K, x1 = 0.699 | – | 0.6346
303 K, x1 = 0.9085 | – | 0.5383
303.15 K, x2 = 0.059 | 0.5225 | 0.5225
303.15 K, x2 = 0.1045 | 0.6482 | –
303.15 K, x2 = 0.1099 | 0.5365 | 0.5365
303.15 K, x2 = 0.1428 | 0.5488 | 0.5488
303.15 K, x2 = 0.1958 | 0.5706 | 0.5706
303.15 K, x2 = 0.2064 | 0.6878 | –
303.15 K, x2 = 0.2432 | 0.5949 | 0.5949
303.15 K, x2 = 0.3054 | 0.7556 | –
303.15 K, x2 = 0.3447 | 0.6588 | 0.6588
303.15 K, x2 = 0.4027 | 0.8383 | –
303.15 K, x2 = 0.4974 | 0.8026 | 0.8026
303.15 K, x2 = 0.5075 | 0.9487 | –
303.15 K, x2 = 0.6005 | 1.073 | –
303.15 K, x2 = 0.6171 | 0.9716 | 0.9716
303.15 K, x2 = 0.7045 | 1.242 | –
303.15 K, x2 = 0.7318 | 1.185 | 1.185
303.15 K, x2 = 0.8005 | 1.408 | –
303.15 K, x2 = 0.8606 | 1.46 | 1.46
303.15 K, x2 = 0.8967 | 1.584 | –
303.15 K, x2 = 0.9106 | 1.565 | 1.565
303.15 K, x2 = 0.9251 | 1.595 | 1.595
303.15 K, x2 = 0.9307 | 1.606 | –
303.15 K, x2 = 0.95 | 1.643 | –
311 K, x1 = 0.0987 | – | 1.283
311 K, x1 = 0.2987 | – | 0.9064
311 K, x1 = 0.4992 | – | 0.7227
311 K, x1 = 0.699 | – | 0.5734
311 K, x1 = 0.9085 | – | 0.4977
313.15 K, x2 = 0.1045 | 0.5901 | –
313.15 K, x2 = 0.2064 | 0.6192 | –
313.15 K, x2 = 0.3054 | 0.6675 | –
313.15 K, x2 = 0.4027 | 0.7329 | –
313.15 K, x2 = 0.5075 | 0.8143 | –
313.15 K, x2 = 0.6005 | 0.9163 | –
313.15 K, x2 = 0.7045 | 1.043 | –
313.15 K, x2 = 0.8967 | 1.278 | –
319 K, x1 = 0.0987 | – | 1.08
319 K, x1 = 0.2941 | – | 0.8178
319 K, x1 = 0.497 | – | 0.6404
319 K, x1 = 0.699 | – | 0.5202
319 K, x1 = 0.9085 | – | 0.4655
323.15 K, x2 = 0.1045 | 0.4791 | –
323.15 K, x2 = 0.2064 | 0.535 | –
323.15 K, x2 = 0.3054 | 0.5965 | –
323.15 K, x2 = 0.4027 | 0.6495 | –
323.15 K, x2 = 0.5075 | 0.7165 | –
323.15 K, x2 = 0.6005 | 0.7941 | –
323.15 K, x2 = 0.7045 | 0.8805 | –
323.15 K, x2 = 0.8005 | 0.965 | –
323.15 K, x2 = 0.8967 | 1.047 | –

[I-].[Li+] + O
Settings | viscosity [mPa·s]
293.15 K, 100 kPa, x1 = 0.005076 | 1.025
293.15 K, 101 kPa, x1 = 0.00701 | 1.029
293.15 K, 101 kPa, x1 = 0.01933 | 1.076
293.15 K, 101 kPa, x1 = 0.04884 | 1.205
293.15 K, 101 kPa, x1 = 0.06296 | 1.292
293.15 K, 101 kPa, x1 = 0.08324 | 1.429
293.15 K, 101 kPa, x1 = 0.1073 | 1.656
293.15 K, 101 kPa, x1 = 0.1418 | 2.218
303.15 K, 101 kPa, x1 = 0.0017 | 0.808
303.15 K, 101 kPa, x1 = 0.00416 | 0.813
303.15 K, 101 kPa, x1 = 0.00701 | 0.821
303.15 K, 101 kPa, x1 = 0.01933 | 0.866
303.15 K, 101 kPa, x1 = 0.02768 | 0.895
303.15 K, 101 kPa, x1 = 0.04884 | 0.977
303.15 K, 101 kPa, x1 = 0.06296 | 1.049
303.15 K, 101 kPa, x1 = 0.08324 | 1.178
303.15 K, 101 kPa, x1 = 0.1073 | 1.376
303.15 K, 101 kPa, x1 = 0.1418 | 1.819
310.15 K, 101 kPa, x1 = 0.000205 | 0.6972
310.15 K, 101 kPa, x1 = 0.00126 | 0.6998
310.15 K, 101 kPa, x1 = 0.001978 | 0.7017
310.15 K, 101 kPa, x1 = 0.002695 | 0.7035
310.15 K, 101 kPa, x1 = 0.003679 | 0.706
310.15 K, 101 kPa, x1 = 0.005197 | 0.7098
310.15 K, 101 kPa, x1 = 0.005988 | 0.7118
323.15 K, 101 kPa, x1 = 0.0017 | 0.555
323.15 K, 101 kPa, x1 = 0.00416 | 0.561
323.15 K, 101 kPa, x1 = 0.00701 | 0.567
323.15 K, 101 kPa, x1 = 0.01933 | 0.602
323.15 K, 101 kPa, x1 = 0.02768 | 0.628
323.15 K, 101 kPa, x1 = 0.04884 | 0.693
323.15 K, 101 kPa, x1 = 0.06296 | 0.752
323.15 K, 101 kPa, x1 = 0.08324 | 0.849
323.15 K, 101 kPa, x1 = 0.1073 | 1.002
323.15 K, 101 kPa, x1 = 0.1418 | 1.344

CCCCCCCCCCCCCCCC + CCCCCCCC
Settings | viscosity [mPa·s]
298.15 K, 101.33 kPa, x2 = 0.1039 | 2.656
298.15 K, 101.33 kPa, x2 = 0.2122 | 2.305
298.15 K, 101.33 kPa, x2 = 0.3109 | 1.973
298.15 K, 101.33 kPa, x2 = 0.4114 | 1.682
298.15 K, 101.33 kPa, x2 = 0.5033 | 1.452
298.15 K, 101.33 kPa, x2 = 0.6068 | 1.205
298.15 K, 101.33 kPa, x2 = 0.7096 | 0.982
298.15 K, 101.33 kPa, x2 = 0.8067 | 0.7957
298.15 K, 101.33 kPa, x2 = 0.9049 | 0.6421
318.16 K, 101 kPa, x1 = 0.15 | 0.5758
318.16 K, 101 kPa, x1 = 0.3499 | 0.8378
318.16 K, 101 kPa, x1 = 0.5001 | 1.073
318.16 K, 101 kPa, x1 = 0.6398 | 1.317
318.16 K, 101 kPa, x1 = 0.7996 | 1.627

CCOCCOCC + COCCO
viscosity [mPa·s], 101.33 kPa
Settings | 298.15 K | 308.15 K
x1 = 0.0157 | 1.497 | 1.223
x2 = 0.0142 | 0.608 | 0.529
x2 = 0.0354 | 0.617 | 0.539
x2 = 0.0658 | 0.631 | 0.549
x2 = 0.0821 | 0.639 | 0.553
x2 = 0.1085 | 0.647 | 0.561
x2 = 0.1503 | 0.663 | 0.578
x2 = 0.2016 | 0.685 | 0.592
x2 = 0.28 | 0.723 | 0.62
x2 = 0.3202 | 0.742 | 0.639
x2 = 0.3604 | 0.767 | 0.655
x2 = 0.4322 | 0.812 | 0.691
x2 = 0.4797 | 0.847 | 0.718
x2 = 0.5152 | 0.875 | 0.739
x2 = 0.5455 | 0.901 | 0.758
x2 = 0.5957 | 0.946 | 0.792
x2 = 0.6464 | 0.996 | 0.832
x2 = 0.7119 | 1.066 | 0.883
x2 = 0.7472 | 1.105 | 0.918
x2 = 0.8023 | 1.18 | 0.969
x2 = 0.8705 | 1.275 | 1.054
x2 = 0.9222 | 1.366 | 1.119
x2 = 0.9592 | 1.425 | 1.167

CCCCCCCCCCCCCCCC + CCCCCC
Settings | viscosity [mPa·s]
298.09 K, 100 kPa, x1 = 0.8 | 2.236
298.12 K, 100 kPa, x1 = 0.4 | 0.991
298.15 K, 100 kPa, x1 = 0.6 | 1.518
298.15 K, 101 kPa, x1 = 0.1995 | 0.6062
298.15 K, 101 kPa, x1 = 0.3978 | 1.017
298.15 K, 101 kPa, x1 = 0.5746 | 1.453
298.15 K, 101 kPa, x1 = 0.8011 | 2.209
298.15 K, 101.33 kPa, x2 = 0.1046 | 2.659
298.15 K, 101.33 kPa, x2 = 0.1966 | 2.25
298.15 K, 101.33 kPa, x2 = 0.3 | 1.88
298.15 K, 101.33 kPa, x2 = 0.4037 | 1.547
298.15 K, 101.33 kPa, x2 = 0.5142 | 1.214
298.15 K, 101.33 kPa, x2 = 0.6072 | 0.987
298.15 K, 101.33 kPa, x2 = 0.7062 | 0.7626
298.15 K, 101.33 kPa, x2 = 0.8048 | 0.58
298.15 K, 101.33 kPa, x2 = 0.9026 | 0.4277
298.19 K, 101 kPa, x2 = 0.1987 | 2.235
298.19 K, 101 kPa, x2 = 0.3772 | 1.607
298.19 K, 101 kPa, x2 = 0.5983 | 1.001
298.19 K, 101 kPa, x2 = 0.7982 | 0.5933
298.22 K, 100 kPa, x1 = 0.2 | 0.584
318.26 K, 101 kPa, x2 = 0.1976 | 1.534
318.26 K, 101 kPa, x2 = 0.3758 | 1.155
318.26 K, 101 kPa, x2 = 0.5971 | 0.7591
318.26 K, 101 kPa, x2 = 0.7975 | 0.4712
323.13 K, 100 kPa, x1 = 0.6 | 1.028

O=[N+]([O-])[O-].[Na+] + N
293.15 K, 101 kPa
Settings | viscosity [mPa·s]
x1 = 0.02 | 0.182
x1 = 0.039 | 0.225
x1 = 0.081 | 0.374

CCCCCCCCCCCCCCCC + c1ccccc1
Settings | viscosity
298 K, 101 kPa, x2 = 0.5 | 1.65 mPa·s and 1.651 mPa·s
298.15 K, 101.33 kPa, x1 = 0.0535 | 0.6803 mPa·s
298.15 K, 101.33 kPa, x1 = 0.09944 | 0.7563 mPa·s
298.15 K, 101.33 kPa, x1 = 0.2199 | 0.9761 mPa·s
298.15 K, 101.33 kPa, x1 = 0.3234 | 1.161 mPa·s
298.15 K, 101.33 kPa, x1 = 0.4341 | 1.429 mPa·s
298.15 K, 101.33 kPa, x1 = 0.5194 | 1.649 mPa·s
298.15 K, 101.33 kPa, x1 = 0.641 | 1.972 mPa·s
298.15 K, 101.33 kPa, x1 = 0.6928 | 2.107 mPa·s
298.15 K, 101.33 kPa, x1 = 0.8361 | 2.492 mPa·s
298.15 K, 101.33 kPa, x1 = 0.9416 | 2.887 mPa·s
318 K, 101 kPa, x2 = 0.5 | 1.192 mPa·s and 1.193 mPa·s
